Laboratory results as given in patent US20240269106A1, “SMALL MOLECULE MODULATOR TARGETING A RARE HISTONE MODIFICATION REGULATING ADIPOGENESIS AND PHARMACEUTICAL FORMULATION THEREOF” (COUNCIL OF SCIENTIFIC AND INDUSTRIAL RESEARCH AN INDIAN …, priority 2021, published 2024).
Where two headings read alike, the source gives them in different places.

Legend:
[1] = Pharmacokinetic study, oral, serum LC-MS; assay type: in vivo, SD rats; details: for Cl/F_obs / Vz/F_obs / AUC(0-t) / Cmax / Tmax / AUC(0-inf) / MRT inf / half-life: free drug coarse suspension; for AUC(0-t) / Cmax / Tmax / AUC(0-inf) / MRT inf / half-life: Sprague-Dawley (SD); for AUC(0-inf): read-out: AUC 0-inf_obs; for MRT inf: read-out: MRT 0-inf_obs; for half-life: read-out: t½ (converted)
Protocol: Healthy male SD rats (weighing 200-230 gm) were used for the pharmacokinetic study. The animals were fasted overnight and had free access to water. The animals were divided into six groups with each group having 6 male SD rats (6×6=36) and were orally administered with optimized compound X nano lipid carrier formulation and coarse suspension (free drug) of compound X. All the formulations were administered orally with the help of rat oral feeding tube. The group comprises as follows, GROUP 1: Only vehicle sodium suspension as control/blank. GROUP 2: Compound X optimized NLC formulation by oral delivery (25 mg/kg). GROUP 3: Compound X free drug as coarse suspension by oral delivery (25 mg/kg). GROUP 4: Compound X free drug as coarse suspension by oral delivery (50 mg/kg). GROUP 5: Compound X free drug as coarse suspension by oral delivery (100 mg/kg). GROUP 6: Compound X free drug as coarse suspension by oral delivery (200 mg/kg). Blood samples were withdrawn from retro-orbital venous plexus puncture at time intervals of 0.25, 0.5, 1, 2, 4, 8, 12, 24 and 48 hours. The blood samples were allowed to clot and centrifuged for 15 min at 4500 rpm. The serum was separated and transferred into clean micro centrifuge tubes and stored at −80° C. until further analysis. 50 μl of rat serum was taken from samples and added to extraction solvent 2.5% IPA in n-Hexane (2 mL) containing internal standard (SCTK-14 of 2.5 ng) than Vortexed for 10 minutes, the samples were centrifuged at 4500 rpm and 4° C. for 15 minutes. After centrifugation, samples were stored at −80° C. for 30 minutes, and the supernatant organic layer was transferred and evaporated to dryness in a thermostatically controlled water bath maintained at 30° C. under steam of nitrogen for 30 minutes. After drying the residue was reconstituted by adding 200 microlitres of acetonitrile into pre-labelled vials and vortexed for 20 seconds, and then the samples were injected into the LC-MS system for analysis.
The pharmacokinetic parameters of compound X were calculated by non-compartmental estimations using PK solver 2.0 software.

[2] = system: 3T3L1 cells; experiment: MTT assay for cytotoxicity testing; assay type: cell-based; details: 25 μM; 2, 4 and 6 days
Protocol: 12500 cells/mL were seeded in presence/absence of compound of Formula I in […] plate and at different intervals of time (2 days, 4 days, 6 days), 1/10th volume of 5 mg/ml MTT solution was added to it followed by incubation at 37° C. for 3 hours. The formed crystals were dissolved in DMSO and spectrometric estimation of colour intensity was done at 570 nm.
MTT assay was performed to check for any possible cellular toxicity effect of compound of Formula I, using 25 μM concentration of the compound on 3T3L1 cells upon incubation for varying lengths of time (2, 4 and 6 days). Comparison was done with cells that were left untreated or treated with DMSO as solvent control (FIG. 3).

[3] = male, rat, serum, 25 mg/kg oral
[4] = male, rat, serum, 50 mg/kg oral
[5] = male, rat, serum, 100 mg/kg oral
[6] = male, rat, serum, 200 mg/kg oral

## COc1ccc(C(=O)C2=C3OC(C)(C)[C@@H](CC=C(C)C)C[C@@]34C[C@@H](CC=C(C)C)C(C)(C)[C@@](CC=C(C)C)(C2=O)C4=O)cc1OC [Compound X]
[1]; free compound X at 25, 50, 100 and 200 mg/kg, except at 200 mg/kg
  difference in AUC between doses: no appreciable difference in AUC
[1]; 25 mg/kg oral
  Cl/F_obs: 3.338 ± 0.33 mg)/(ng/ml)/h
  Vz/F_obs: 71.906 ± 29.05 (mg)/(ng/ml)
[1]; 50 mg/kg oral
  Cl/F_obs: 8.071 ± 2.12 mg)/(ng/ml)/h
  Vz/F_obs: 193.686 ± 112.43 (mg)/(ng/ml)
[1]; 100 mg/kg oral
  Cl/F_obs: 18.233 ± 4.3 mg)/(ng/ml)/h
  Vz/F_obs: 346.653 ± 2.6193 (mg)/(ng/ml)
[1]; 200 mg/kg oral
  Cl/F_obs: 10.882 ± 4.58 mg)/(ng/ml)/h
  Vz/F_obs: 209.737 ± 91.22 (mg)/(ng/ml)
[1]; male, SD, rat, serum, oral, free compound X, 200 mg/kg dose
  AUC: ~20 ng·h/mL
[1]; [3]
  AUC(0-t): 6.56 ± 1.57 ng·h/mL
  Cmax: 0.853 ± 0.09 ng/mL
  Tmax: 4.67 ± 3.05 h
  AUC(0-inf): 7.54 ± 0.8 ng·h/mL
  MRT inf: 22.2 ± 9.59 h
  half-life: 14.7 ± 5.07 h
[1]; [4]
  AUC(0-t): 4.74 ± 0.1 ng·h/mL
  Cmax: 2.49 ± 0.14 ng/mL
  Tmax: 0.333 ± 0.14 h
  AUC(0-inf): 6.49 ± 1.71 ng·h/mL
  MRT inf: 28.4 ± 22.8 h
  half-life: 18.6 ± 12.2 h
[1]; [5]
  AUC(0-t): 5.29 ± 0.99 ng·h/mL
  Cmax: 0.343 ± 0.15 ng/mL
  Tmax: 0.667 ± 0.28 h
  AUC(0-inf): 5.74 ± 1.6 ng·h/mL
  MRT inf: 21 ± 3.98 h
  half-life: 13.8 ± 3.74 h
[1]; [6]
  AUC(0-t): 19.1 ± 7.84 ng·h/mL
  Cmax: 2.83 ± 2.16 ng/mL
  Tmax: 2.92 ± 4.4 h
  AUC(0-inf): 20.6 ± 7.98 ng·h/mL
  MRT inf: 15.7 ± 2.87 h
  half-life: 13.4 ± 4.31 h
[2]
  toxic effect (MTT): No toxic effect
